Earlier results as cited in patent publication US20060046961A1, “Controlled and directed local delivery of anti-inflammatory compositions” (priority 2004, published 2006).

Tested on: PGE2 production
Conditions: cell culture

COc1ccc2cc(CC(=O)O)ccc2c1 [6-methoxy-2-napthylacetic acid]
PGE2 production: suppress | local inflammation: suppress
